According to ChEMBL document CHEMBL5463729, “Data for DCP probe BAY 1753011” (2023):

How the values were obtained:
Conditions in all cases: Compound concentration 10.0 uM
[1] = target: Mitogen-activated protein kinase kinase kinase 5 (Homo sapiens) (UniProt Q99683); test: Inhibition of ASK1(h) at 10.0 µM in the Eurofins Kinase panel
[2] = target: Ephrin type-A receptor 3 (Homo sapiens) (UniProt P29320); test: Inhibition of EphA3(h) at 10.0 µM in the Eurofins Kinase panel
[3] = target: Serine/threonine-protein kinase PLK4 (Homo sapiens) (UniProt O00444); test: Inhibition of Plk4(h) at 10.0 µM in the Eurofins Kinase panel
[4] = target: Serine/threonine-protein kinase PAK 1 (Homo sapiens) (UniProt Q13153); test: Inhibition of PAK1(h) at 10.0 µM in the Eurofins Kinase panel
[5] = target: Tyrosine-protein kinase FRK (Homo sapiens) (UniProt P42685); test: Inhibition of PTK5(h) at 10.0 µM in the Eurofins Kinase panel
[6] = target: D(1B) dopamine receptor (Homo sapiens) (UniProt P21918)
[7] = target: Beta-2 adrenergic receptor (Homo sapiens) (UniProt P07550)
[8] = target: Serine/threonine-protein kinase Nek9 (Homo sapiens) (UniProt Q8TD19); test: Inhibition of NEK9(h) at 10.0 µM in the Eurofins Kinase panel
[9] = target: Mitogen-activated protein kinase kinase kinase 2 (Homo sapiens) (UniProt Q9Y2U5); test: Inhibition of MEKK2(h) at 10.0 µM in the Eurofins Kinase panel
[10] = target: 5-hydroxytryptamine receptor 1B (Homo sapiens) (UniProt P28222)
[11] = target: Serine/threonine-protein kinase BRSK1 (Homo sapiens) (UniProt Q8TDC3); test: Inhibition of BrSK1(h) at 10.0 µM in the Eurofins Kinase panel
[12] = target: DNA-dependent protein kinase catalytic subunit (Homo sapiens) (UniProt P78527); test: Inhibition of DNA-PK(h) at 10.0 µM in the Eurofins Kinase panel
[13] = target: Serine/threonine-protein kinase 17B (Homo sapiens) (UniProt O94768); test: Inhibition of DRAK2(h) at 10.0 µM in the Eurofins Kinase panel
[14] = target: Receptor-interacting serine/threonine-protein kinase 1 (Homo sapiens) (UniProt Q13546); test: Inhibition of RIPK1(h) at 10.0 µM in the Eurofins Kinase panel
[15] = target: Mitogen-activated protein kinase kinase kinase 11 (Homo sapiens) (UniProt Q16584); test: Inhibition of MLK3(h) at 10.0 µM in the Eurofins Kinase panel
[16] = target: Epidermal growth factor receptor (Homo sapiens) (UniProt P00533); test: Inhibition of EGFR(h) at 10.0 µM in the Eurofins Kinase panel
[17] = target: Mitogen-activated protein kinase kinase kinase 8 (Homo sapiens) (UniProt P41279); test: Inhibition of COT(h) at 10.0 µM in the Eurofins Kinase panel
[18] = target: Misshapen-like kinase 1 (Homo sapiens) (UniProt Q8N4C8); test: Inhibition of MINK(h) at 10.0 µM in the Eurofins Kinase panel
[19] = target: Phosphatidylinositol 3-kinase C2 domain-containing subunit gamma (Homo sapiens) (UniProt O75747); test: Inhibition of PI3KC2g(h) at 10.0 µM in the Eurofins Kinase panel
[20] = target: Protein kinase C beta type (Homo sapiens) (UniProt P05771); test: Inhibition of PKCbetaI(h) at 10.0 µM in the Eurofins Kinase panel
[21] = target: Cytoplasmic tyrosine-protein kinase BMX (Homo sapiens) (UniProt P51813); test: Inhibition of Bmx(h) at 10.0 µM in the Eurofins Kinase panel
[22] = target: T1, Alpha-2C adrenergic receptor (Homo sapiens) (UniProt P18825)
T1 sequence (whole entry): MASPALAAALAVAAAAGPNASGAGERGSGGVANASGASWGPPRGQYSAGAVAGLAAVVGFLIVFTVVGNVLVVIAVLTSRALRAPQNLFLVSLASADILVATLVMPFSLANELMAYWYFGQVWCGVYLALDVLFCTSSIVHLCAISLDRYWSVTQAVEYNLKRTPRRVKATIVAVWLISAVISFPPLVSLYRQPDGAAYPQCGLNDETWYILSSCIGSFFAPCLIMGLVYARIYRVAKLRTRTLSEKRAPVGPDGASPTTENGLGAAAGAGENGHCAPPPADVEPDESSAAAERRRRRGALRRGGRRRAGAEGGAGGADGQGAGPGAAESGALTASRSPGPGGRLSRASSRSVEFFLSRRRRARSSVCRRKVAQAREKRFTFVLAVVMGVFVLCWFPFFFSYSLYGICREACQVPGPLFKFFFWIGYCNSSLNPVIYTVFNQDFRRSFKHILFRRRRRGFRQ

[23] = target: Serine/threonine-protein kinase haspin (Homo sapiens) (UniProt Q8TF76); test: Inhibition of Haspin(h) at 10.0 µM in the Eurofins Kinase panel
[24] = target: Glucocorticoid receptor (Homo sapiens) (UniProt P04150)
[25] = target: Beta-3 adrenergic receptor (Homo sapiens) (UniProt P13945)
[26] = target: Testis-specific serine/threonine-protein kinase 1 (Homo sapiens) (UniProt Q9BXA7); test: Inhibition of TSSK1(h) at 10.0 µM in the Eurofins Kinase panel
[27] = target: Calcium/calmodulin-dependent protein kinase type 1G (Homo sapiens) (UniProt Q96NX5); test: Inhibition of CaMKIgamma(h) at 10.0 µM in the Eurofins Kinase panel
[28] = target: Tyrosine-protein kinase Fyn (Homo sapiens) (UniProt P06241); test: Inhibition of Fyn(h) at 10.0 µM in the Eurofins Kinase panel
[29] = target: Mitogen-activated protein kinase 11 (Homo sapiens) (UniProt Q15759); test: Inhibition of SAPK2b(h) at 10.0 µM in the Eurofins Kinase panel
[30] = target: 5-hydroxytryptamine receptor 5A (Homo sapiens) (UniProt P47898)
[31] = target: Serine/threonine-protein kinase tousled-like 2 (Homo sapiens) (UniProt Q86UE8); test: Inhibition of TLK2(h) at 10.0 µM in the Eurofins Kinase panel
Chain of Serine/threonine-protein kinase tousled-like 2 (Homo sapiens) (Q86UE8 whole entry, looked up): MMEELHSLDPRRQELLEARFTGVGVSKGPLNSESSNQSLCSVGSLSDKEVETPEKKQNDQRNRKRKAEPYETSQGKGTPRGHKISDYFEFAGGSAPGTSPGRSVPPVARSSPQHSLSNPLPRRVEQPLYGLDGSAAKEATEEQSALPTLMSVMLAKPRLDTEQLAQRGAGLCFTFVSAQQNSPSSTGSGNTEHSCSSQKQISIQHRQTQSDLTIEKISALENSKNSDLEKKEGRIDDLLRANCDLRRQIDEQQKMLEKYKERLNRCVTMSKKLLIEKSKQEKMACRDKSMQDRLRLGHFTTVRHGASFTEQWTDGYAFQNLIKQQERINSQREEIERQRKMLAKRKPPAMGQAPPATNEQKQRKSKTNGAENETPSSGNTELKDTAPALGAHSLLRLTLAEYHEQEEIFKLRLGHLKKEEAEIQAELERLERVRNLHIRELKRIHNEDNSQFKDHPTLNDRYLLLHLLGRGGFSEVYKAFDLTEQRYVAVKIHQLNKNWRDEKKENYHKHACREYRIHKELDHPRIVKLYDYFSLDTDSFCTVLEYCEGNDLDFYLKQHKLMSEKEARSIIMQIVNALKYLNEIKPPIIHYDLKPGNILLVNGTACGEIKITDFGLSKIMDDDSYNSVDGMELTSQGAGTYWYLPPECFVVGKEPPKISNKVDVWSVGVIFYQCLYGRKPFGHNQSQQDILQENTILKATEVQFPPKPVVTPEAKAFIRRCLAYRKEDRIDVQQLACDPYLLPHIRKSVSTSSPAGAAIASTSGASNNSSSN

Chain of Beta-3 adrenergic receptor (Homo sapiens) (P13945 whole entry, looked up): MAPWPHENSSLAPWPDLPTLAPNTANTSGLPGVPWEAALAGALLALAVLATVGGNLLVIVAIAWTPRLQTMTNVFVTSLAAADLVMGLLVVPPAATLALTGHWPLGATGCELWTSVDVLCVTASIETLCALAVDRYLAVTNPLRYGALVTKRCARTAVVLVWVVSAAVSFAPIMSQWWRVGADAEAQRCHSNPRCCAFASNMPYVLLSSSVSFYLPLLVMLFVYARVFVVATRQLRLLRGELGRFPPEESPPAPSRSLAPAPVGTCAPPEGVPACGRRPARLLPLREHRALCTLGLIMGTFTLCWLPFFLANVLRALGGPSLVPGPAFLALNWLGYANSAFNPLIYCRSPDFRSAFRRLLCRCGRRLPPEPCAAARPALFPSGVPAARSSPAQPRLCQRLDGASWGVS
Chain of 5-hydroxytryptamine receptor 5A (Homo sapiens) (P47898 whole entry): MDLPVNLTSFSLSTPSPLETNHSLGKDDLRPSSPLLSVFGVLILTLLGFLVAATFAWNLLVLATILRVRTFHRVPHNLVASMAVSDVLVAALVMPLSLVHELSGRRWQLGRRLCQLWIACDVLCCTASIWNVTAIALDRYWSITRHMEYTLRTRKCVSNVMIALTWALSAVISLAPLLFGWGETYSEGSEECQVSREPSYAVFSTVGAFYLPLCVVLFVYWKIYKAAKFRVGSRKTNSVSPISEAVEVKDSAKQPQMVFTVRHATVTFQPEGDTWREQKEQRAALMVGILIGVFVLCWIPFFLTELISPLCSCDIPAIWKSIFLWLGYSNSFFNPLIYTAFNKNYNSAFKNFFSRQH
Chain of D(1B) dopamine receptor (Homo sapiens) (P21918 whole entry): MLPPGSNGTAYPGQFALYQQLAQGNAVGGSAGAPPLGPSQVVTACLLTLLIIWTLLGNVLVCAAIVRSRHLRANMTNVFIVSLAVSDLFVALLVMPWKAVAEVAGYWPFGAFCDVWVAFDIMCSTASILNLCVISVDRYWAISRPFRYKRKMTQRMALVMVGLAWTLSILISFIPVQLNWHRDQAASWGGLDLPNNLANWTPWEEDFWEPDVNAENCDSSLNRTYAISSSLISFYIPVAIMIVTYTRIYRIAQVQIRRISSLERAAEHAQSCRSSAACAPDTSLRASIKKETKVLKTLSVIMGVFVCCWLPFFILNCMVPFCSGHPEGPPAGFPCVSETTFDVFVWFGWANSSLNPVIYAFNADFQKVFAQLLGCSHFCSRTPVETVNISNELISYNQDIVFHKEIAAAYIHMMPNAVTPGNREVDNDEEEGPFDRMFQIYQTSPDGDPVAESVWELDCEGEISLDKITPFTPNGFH
Chain of 5-hydroxytryptamine receptor 1B (Homo sapiens) (P28222 whole entry): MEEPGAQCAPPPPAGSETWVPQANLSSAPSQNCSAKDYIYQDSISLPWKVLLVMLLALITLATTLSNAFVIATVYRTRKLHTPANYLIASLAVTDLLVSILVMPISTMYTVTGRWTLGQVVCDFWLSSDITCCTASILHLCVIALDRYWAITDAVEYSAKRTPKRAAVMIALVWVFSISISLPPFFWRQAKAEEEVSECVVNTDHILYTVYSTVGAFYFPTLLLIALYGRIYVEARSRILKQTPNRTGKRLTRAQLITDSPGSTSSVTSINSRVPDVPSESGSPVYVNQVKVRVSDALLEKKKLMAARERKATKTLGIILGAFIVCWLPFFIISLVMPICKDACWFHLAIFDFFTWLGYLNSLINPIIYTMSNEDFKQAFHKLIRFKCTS
Chain of Receptor-interacting serine/threonine-protein kinase 1 (Homo sapiens) (Q13546 whole entry): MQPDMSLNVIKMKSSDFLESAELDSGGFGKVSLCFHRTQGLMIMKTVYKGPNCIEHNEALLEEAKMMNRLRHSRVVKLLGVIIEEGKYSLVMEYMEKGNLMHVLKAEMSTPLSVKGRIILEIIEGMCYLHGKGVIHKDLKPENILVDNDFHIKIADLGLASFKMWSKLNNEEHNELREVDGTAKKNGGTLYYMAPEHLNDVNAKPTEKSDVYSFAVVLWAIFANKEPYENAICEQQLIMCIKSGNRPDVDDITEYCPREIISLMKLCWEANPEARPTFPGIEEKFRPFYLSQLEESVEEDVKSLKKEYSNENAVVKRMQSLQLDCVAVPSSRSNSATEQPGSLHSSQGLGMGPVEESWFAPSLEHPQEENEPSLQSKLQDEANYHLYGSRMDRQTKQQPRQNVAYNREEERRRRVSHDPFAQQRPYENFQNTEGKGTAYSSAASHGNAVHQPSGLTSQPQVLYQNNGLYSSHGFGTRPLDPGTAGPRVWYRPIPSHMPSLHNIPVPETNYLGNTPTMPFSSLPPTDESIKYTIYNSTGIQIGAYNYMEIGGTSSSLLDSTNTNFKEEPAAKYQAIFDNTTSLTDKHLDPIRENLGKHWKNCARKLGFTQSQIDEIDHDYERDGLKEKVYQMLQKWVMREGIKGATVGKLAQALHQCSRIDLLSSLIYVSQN
Chain of Protein kinase C beta type (Homo sapiens) (P05771 2-671 limits assumed): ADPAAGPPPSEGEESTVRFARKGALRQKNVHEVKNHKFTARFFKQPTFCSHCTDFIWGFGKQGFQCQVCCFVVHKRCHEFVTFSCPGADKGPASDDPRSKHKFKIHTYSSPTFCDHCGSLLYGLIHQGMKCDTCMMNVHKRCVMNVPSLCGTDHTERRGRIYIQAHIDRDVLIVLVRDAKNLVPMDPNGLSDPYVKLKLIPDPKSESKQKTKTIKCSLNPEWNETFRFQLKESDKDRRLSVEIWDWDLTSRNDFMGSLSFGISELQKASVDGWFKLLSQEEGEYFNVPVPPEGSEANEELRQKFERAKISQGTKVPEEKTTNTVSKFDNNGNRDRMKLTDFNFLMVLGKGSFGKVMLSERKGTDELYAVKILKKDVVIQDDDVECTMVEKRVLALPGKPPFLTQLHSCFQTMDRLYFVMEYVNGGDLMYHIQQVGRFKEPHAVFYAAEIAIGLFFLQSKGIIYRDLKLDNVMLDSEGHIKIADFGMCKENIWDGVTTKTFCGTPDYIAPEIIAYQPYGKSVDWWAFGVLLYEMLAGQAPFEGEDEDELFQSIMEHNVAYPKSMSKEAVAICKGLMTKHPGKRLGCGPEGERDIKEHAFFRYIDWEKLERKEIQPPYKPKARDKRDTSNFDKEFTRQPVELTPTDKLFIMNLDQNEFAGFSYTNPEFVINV
Chain of Serine/threonine-protein kinase PAK 1 (Homo sapiens) (Q13153 whole entry): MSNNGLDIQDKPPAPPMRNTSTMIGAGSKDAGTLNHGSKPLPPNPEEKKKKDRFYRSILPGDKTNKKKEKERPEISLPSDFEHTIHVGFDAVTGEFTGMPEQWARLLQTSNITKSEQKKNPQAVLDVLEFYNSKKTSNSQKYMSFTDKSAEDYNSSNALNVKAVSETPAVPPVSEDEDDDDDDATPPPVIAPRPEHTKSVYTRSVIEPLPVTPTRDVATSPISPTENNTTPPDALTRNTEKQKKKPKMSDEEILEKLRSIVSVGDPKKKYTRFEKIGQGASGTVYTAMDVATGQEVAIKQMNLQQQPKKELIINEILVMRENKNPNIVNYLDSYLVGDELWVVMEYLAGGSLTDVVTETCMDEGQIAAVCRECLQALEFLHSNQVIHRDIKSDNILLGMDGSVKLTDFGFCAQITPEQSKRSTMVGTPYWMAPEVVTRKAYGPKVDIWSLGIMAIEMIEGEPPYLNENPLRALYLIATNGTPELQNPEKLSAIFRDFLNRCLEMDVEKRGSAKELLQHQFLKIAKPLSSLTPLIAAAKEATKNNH
Chain of Serine/threonine-protein kinase 17B (Homo sapiens) (O94768 whole entry): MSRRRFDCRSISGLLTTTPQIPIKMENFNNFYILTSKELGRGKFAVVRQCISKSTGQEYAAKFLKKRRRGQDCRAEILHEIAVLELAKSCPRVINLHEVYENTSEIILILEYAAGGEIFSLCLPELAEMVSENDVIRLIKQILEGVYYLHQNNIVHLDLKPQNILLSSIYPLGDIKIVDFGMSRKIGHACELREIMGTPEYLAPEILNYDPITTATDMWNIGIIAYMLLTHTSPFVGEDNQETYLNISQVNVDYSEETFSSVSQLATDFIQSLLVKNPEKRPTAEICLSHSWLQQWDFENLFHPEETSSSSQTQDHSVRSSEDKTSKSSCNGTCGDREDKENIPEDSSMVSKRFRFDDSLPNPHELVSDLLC

Structure (SMILES) | inhibition [1] | inhibition [2] | inhibition [3] | inhibition [4] | inhibition [5] | inhibition [6] | inhibition [7] | inhibition [8] | inhibition [9] | inhibition [10] | inhibition [11] | inhibition [12] | inhibition [13] | inhibition [14] | inhibition [15] | inhibition [16] | inhibition [17] | inhibition [18] | inhibition [19] | inhibition [20] | further results
O=c1n(Cc2cncn2-c2cccc(Cl)c2)nc(-c2ccc(Cl)cc2)n1C[C@H](O)C(F)(F)F | -1.47% | 1.3% | 10.6% | 5.16% | 0.3% | 19.6% | 0% | 9.43% | 9.53% | 7.15% | 4.95% | -5.25% | -2.64% | 2.04% | 14.9% | -4.73% | -1.4% | 5.6% | 6.58% | 1% | inhibition [21]: -7.7%; inhibition [22]: -3%; inhibition [23]: -2.75%; inhibition [24]: 32%; inhibition [25]: -0.32%; inhibition [26]: 7.23%; inhibition [27]: 0.71%; inhibition [28]: 5.53%; inhibition [29]: -0.67%; inhibition [30]: -4.02%; inhibition [31]: -6.55%
C[C@H](O)c1nc(Cn2nc(-c3ccc(Cl)cc3)n(C[C@H](O)C(F)(F)F)c2=O)nn1-c1cccc(Cl)c1 [PECAVAPTAN] | -8.63% | -7.49% | -5.71% | 5.15% | 0.28% | 1.94% | 9% | 7.88% | 7.54% | 4.87% | -5.39% | -4.2% | 2.39% | 0.69% | 11.3% | -5.82% | -0.64% | 5.2% | 6.41% | 2.79% | inhibition [21]: -9.46%; inhibition [22]: 11%; inhibition [23]: 2.09%; inhibition [24]: 1%; inhibition [25]: -1.97%; inhibition [26]: -5.64%; inhibition [27]: -0.43%; inhibition [28]: -1.76%; inhibition [29]: 1.32%; inhibition [30]: 3.65%; inhibition [31]: -5.51%
